Assay results from publication PMC3910101 (International journal of cancer. Journal international du …, 2012).
pKd: −log10 of the molar value.

Biological target: Hsp90
Assay: SPR
Type: binding, Homo sapiens

CC(C)=CCCC1(C)C=Cc2c(c(C)cc3c2[nH]c2cc(O)ccc23)O1 (stereo not shown) [mahanine]
pKd: 5.30
